From PubChem BioAssay (NCI)
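Assay format: 96-well plates, 48-hour exposure. TGI marks complete inhibition of growth.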

Key:
Assay in all cases: DTP human tumour cell line panel, 48 h
EKVX NSCLC = test system: EKVX NSCLC
MCF7 breast = test system: MCF7 breast
LOX IMVI melanoma = test system: LOX IMVI melanoma
MDA-MB-435 = test system: MDA-MB-435
SK-MEL-2 melanoma = test system: SK-MEL-2 melanoma
KM12 colon = test system: KM12 colon
SK-OV-3 ovarian = test system: SK-OV-3 ovarian
786-0 renal = test system: 786-0 renal
OVCAR-3 ovarian = test system: OVCAR-3 ovarian
MDA-MB-231 breast = test system: MDA-MB-231 breast
DU-145 prostate = test system: DU-145 prostate
HOP-62 NSCLC = test system: HOP-62 NSCLC
OVCAR-4 ovarian = test system: OVCAR-4 ovarian
SK-MEL-28 melanoma = test system: SK-MEL-28 melanoma
M14 melanoma = test system: M14 melanoma
UACC-257 melanoma = test system: UACC-257 melanoma
NCI-H460 lung = test system: NCI-H460 lung
NCI/ADR-RES ovarian = test system: NCI/ADR-RES ovarian
SW-620 colon = test system: SW-620 colon
T-47D breast = test system: T-47D breast
CCRF-CEM leukemia = test system: CCRF-CEM leukemia
OVCAR-8 ovarian = test system: OVCAR-8 ovarian
COLO 205 colon = test system: COLO 205 colon
SNB-75 CNS = test system: SNB-75 CNS
HOP-92 NSCLC = test system: HOP-92 NSCLC
PC-3 prostate = test system: PC-3 prostate
RXF 393 renal = test system: RXF 393 renal
SK-MEL-5 melanoma = test system: SK-MEL-5 melanoma
RPMI-8226 leukemia = test system: RPMI-8226 leukemia
TK-10 renal = test system: TK-10 renal
CAKI-1 renal = test system: CAKI-1 renal
IGROV1 ovarian = test system: IGROV1 ovarian
MALME-3M melanoma = test system: MALME-3M melanoma
A498 renal = test system: A498 renal
ACHN renal = test system: ACHN renal
HS 578T breast = test system: HS 578T breast
A549 NSCLC = test system: A549 NSCLC
K-562 leukemia = test system: K-562 leukemia
HL-60(TB) leukemia = test system: HL-60(TB) leukemia
SN12C renal = test system: SN12C renal
UACC-62 melanoma = test system: UACC-62 melanoma
MDA-N = test system: MDA-N
SF-295 CNS = test system: SF-295 CNS
SF-539 CNS = test system: SF-539 CNS
NCI-H23 lung = test system: NCI-H23 lung
SR leukemia = test system: SR leukemia
HCT-15 colon = test system: HCT-15 colon
UO-31 renal = test system: UO-31 renal
U251 CNS = test system: U251 CNS
SF-268 CNS = test system: SF-268 CNS
BT-549 breast = test system: BT-549 breast
HCT-116 colon = test system: HCT-116 colon
MOLT-4 leukemia = test system: MOLT-4 leukemia
HT29 colon = test system: HT29 colon
NCI-H226 lung = test system: NCI-H226 lung
NCI-H522 lung = test system: NCI-H522 lung
OVCAR-5 ovarian = test system: OVCAR-5 ovarian
HCC-2998 colon = test system: HCC-2998 colon
SNB-19 CNS = test system: SNB-19 CNS

Measured: TGI

Cc1ncc([N+](=O)[O-])n1CCNC(=O)CCC(=O)NCCCn1ccnc1[N+](=O)[O-]
not listed: HCC-2998 colon | SNB-19 CNS
> 100 µM: all other assays above

CCC(=O)NC(Nc1ccccc1F)(C(F)(F)F)C(F)(F)F
not listed: 786-0 renal | HOP-62 NSCLC | MALME-3M melanoma | A498 renal | NCI-H226 lung
> 100 µM: all other assays above

CCOP(=O)(OCC)C(C)(CC)NC1=NC(C(F)(F)F)(C(F)(F)F)NC(=O)N1 (stereo not drawn)
not listed: A498 renal | NCI-H522 lung
> 100 µM: all other assays above
